Toxic doses and inconclusive results are not listed. No stated cut-off is given here; in the data, active means T/C of 150% or more; inactive means T/C below 125%.
Tested on: L1210 leukemia ip in BDF1 mice, survival T/C
Assay: NCI In Vivo Anticancer Drug Screen. Data for tumor model L1210 Leukemia (intraperitoneal) in B6D2F1 (BDF1) mice
Details: endpoint: mean survival time, higher = longer survival
Procedure, shortened: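 Antitumor effect is assessed in tumor-bearing animals. Survival in the compound arm is compared with a vehicle-dosed control arm and expressed as their quotient.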

[1] = dose: 100.0 mg/kg/injection, schedule: Q04DX002 (ip), vehicle: Klucel (hydroxypropylcellulose) (HPC)
[2] = dose: 100.0 mg/kg/injection, schedule: Q04DX003 (ip), vehicle: saline with Tween-80
[3] = dose: 200.0 mg/kg/injection, schedule: Q04DX002 (ip), vehicle: Klucel (hydroxypropylcellulose) (HPC)
[4] = dose: 200.0 mg/kg/injection, schedule: Q04DX003 (ip), vehicle: saline with Tween-80
[5] = dose: 400.0 mg/kg/injection, schedule: Q04DX002 (ip), vehicle: Klucel (hydroxypropylcellulose) (HPC)
[6] = dose: 100.0 mg/kg/injection, schedule: Q01DX009 (ip), vehicle: Klucel (hydroxypropylcellulose) (HPC)
[7] = dose: 200.0 mg/kg/injection, schedule: Q01DX009 (ip), vehicle: Klucel (hydroxypropylcellulose) (HPC)
[8] = dose: 400.0 mg/kg/injection, schedule: Q01DX009 (ip), vehicle: Klucel (hydroxypropylcellulose) (HPC)
[9] = dose: 50.0 mg/kg/injection, schedule: Q01DX001 (ip), vehicle: saline
[10] = dose: 100.0 mg/kg/injection, schedule: Q01DX001 (ip), vehicle: saline
[11] = dose: 200.0 mg/kg/injection, schedule: Q01DX001 (ip), vehicle: saline
[12] = dose: 400.0 mg/kg/injection, schedule: Q01DX001 (ip), vehicle: saline
[13] = dose: 100.0 mg/kg/injection, schedule: Q01DX009 (ip), vehicle: saline with Tween-80
[14] = dose: 200.0 mg/kg/injection, schedule: Q01DX009 (ip), vehicle: saline with Tween-80
[15] = dose: 100.0 mg/kg/injection, schedule: Q04DX003 (ip), vehicle: Klucel (hydroxypropylcellulose) (HPC)
[16] = dose: 200.0 mg/kg/injection, schedule: Q04DX003 (ip), vehicle: Klucel (hydroxypropylcellulose) (HPC)
[17] = dose: 400.0 mg/kg/injection, schedule: Q04DX003 (ip), vehicle: Klucel (hydroxypropylcellulose) (HPC)

Measured: T/C

C(=C\SCc1ccccc1)/SCc1ccccc1
inactive: [1] 103 % of control | [2] 97 % of control | [3] 103 % of control | [4] 101 % of control | [5] 96 % of control | dose: 400.0 mg/kg/injection, schedule: Q04DX003 (ip), vehicle: saline with Tween-80 102 % of control

O/N=C/Cc1ccccc1
inactive: dose: 100.0 mg/kg/injection, schedule: Q04DX002 (ip), vehicle: DMSO 103 % of control | dose: 200.0 mg/kg/injection, schedule: Q04DX002 (ip), vehicle: DMSO 123 % of control

CCCCOC(=O)c1ccc(NC(=O)Nc2cc(Cl)ccc2OC)cc1
inactive: [6] 98 % of control | [7] 98 % of control | [8] 90 % of control

CC1=CC=C(C(=O)O)C1
inactive: [6] 90 % of control | [7] 100 % of control | [8] 92 % of control

Cc1cc(CSC(=N)N)c(CSC(=N)N)cc1C
inactive: dose: 10.0 mg/kg/injection, schedule: Q01DX001 (ip), vehicle: saline 97 % of control | dose: 20.0 mg/kg/injection, schedule: Q01DX001 (ip), vehicle: saline 94 % of control | dose: 40.0 mg/kg/injection, schedule: Q01DX001 (ip), vehicle: saline 94 % of control

CSCCc1ccccn1
inactive: [9] 98 % of control | [10] 104 % of control | [11] 98 % of control | [12] 110 % of control

CC1CC[N+]2(CC(=O)c3ccc(Br)cc3)CCCC12 (stereo not given)
inactive: dose: 12.5 mg/kg/injection, schedule: Q01DX001 (ip), vehicle: saline 101 % of control | dose: 25.0 mg/kg/injection, schedule: Q01DX001 (ip), vehicle: saline 104 % of control | [9] 98 % of control

C=CS(=O)Cc1ccccc1 (stereo not given)
inactive: dose: 12.5 mg/kg/injection, schedule: Q04DX002 (ip), vehicle: saline 112 % of control | dose: 25.0 mg/kg/injection, schedule: Q04DX002 (ip), vehicle: saline 94 % of control | dose: 50.0 mg/kg/injection, schedule: Q04DX002 (ip), vehicle: saline 98 % of control

NNC(=O)CCc1ccccc1Br
inactive: [2] 99 % of control | [4] 92 % of control

COc1ccc(C)cc1NC(=O)OCCOc1ccc(Cl)c(C)c1
inactive: dose: 50.0 mg/kg/injection, schedule: Q01DX009 (ip), vehicle: saline with Tween-80 93 % of control | [13] 90 % of control | [14] 93 % of control

Cc1noc2ncnc(N)c12
inactive: dose: 25.0 mg/kg/injection, schedule: Q01DX009 (ip), vehicle: Klucel (hydroxypropylcellulose) (HPC) 102 % of control | dose: 50.0 mg/kg/injection, schedule: Q01DX009 (ip), vehicle: Klucel (hydroxypropylcellulose) (HPC) 102 % of control | [6] 95 % of control

CN(C)C(=O)Nc1cccnc1
inactive: dose: 75.0 mg/kg/injection, schedule: Q04DX003 (ip), vehicle: saline 97 % of control | dose: 150.0 mg/kg/injection, schedule: Q04DX003 (ip), vehicle: saline 106 % of control | dose: 300.0 mg/kg/injection, schedule: Q04DX003 (ip), vehicle: saline 101 % of control

O=C(CCCCC(=O)N/N=C\c1ccccn1)N/N=C\c1ccccn1
inactive: dose: 100.0 mg/kg/injection, schedule: Q01DX009 (ip), vehicle: saline 98 % of control | dose: 100.0 mg/kg/injection, schedule: Q04DX003 (ip), vehicle: saline 96 % of control | dose: 200.0 mg/kg/injection, schedule: Q01DX009 (ip), vehicle: saline 89 % of control | dose: 200.0 mg/kg/injection, schedule: Q04DX003 (ip), vehicle: saline 107 % of control | dose: 400.0 mg/kg/injection, schedule: Q01DX009 (ip), vehicle: saline 100 % of control | dose: 400.0 mg/kg/injection, schedule: Q04DX003 (ip), vehicle: saline 89 % of control

COc1ccc(C(=O)N/N=C/C(CC(O)CO)=N/NC(=O)c2ccc(OC)cc2)cc1 (stereo not given)
inactive: [15] 95 % of control | [16] 92 % of control | [17] 96 % of control

O=C1NC(=O)C(c2ccc(Cl)cc2)(c2ccccc2Cl)N1 (stereo not given)
inactive: [15] 95 % of control | [16] 102 % of control | [17] 98 % of control

O=c1[nH]c2ccc(I)cc2c(=O)o1
inactive: [13] 100 % of control | [14] 100 % of control | dose: 400.0 mg/kg/injection, schedule: Q01DX009 (ip), vehicle: saline with Tween-80 101 % of control

Cc1cc(C)c2c(c1)NP(=S)(c1ccccc1)N2 (stereo not given)
inactive: dose: 75.0 mg/kg/injection, schedule: Q04DX002 (ip), vehicle: gum acacia 93 % of control | dose: 150.0 mg/kg/injection, schedule: Q04DX002 (ip), vehicle: gum acacia 93 % of control | dose: 300.0 mg/kg/injection, schedule: Q04DX002 (ip), vehicle: gum acacia 93 % of control

C=C(C)C1CC=C(/C=N/O)CC1 (stereo not given)
inactive: [10] 104 % of control | dose: 100.0 mg/kg/injection, schedule: Q01DX009 (ip), vehicle: saline sonified 104 % of control | [15] 96 % of control | [11] 101 % of control | dose: 200.0 mg/kg/injection, schedule: Q01DX009 (ip), vehicle: saline sonified 97 % of control | [16] 98 % of control | [12] 95 % of control | dose: 400.0 mg/kg/injection, schedule: Q01DX009 (ip), vehicle: saline sonified 97 % of control | [17] 98 % of control

O=S(=O)(CCCl)c1ccc(Br)cc1
inactive: [1] 101 % of control | [3] 97 % of control | [5] 101 % of control

CCCCC1CCC2=C(CC(O)(CCCC)CC3=C1C(=O)OC3=O)C(=O)OC2=O (stereo not given)
inactive: dose: 100.0 mg/kg/injection, schedule: Q04DX002 (ip), vehicle: saline with Tween-80 106 % of control | dose: 200.0 mg/kg/injection, schedule: Q04DX002 (ip), vehicle: saline with Tween-80 95 % of control

CNCC1C(c2ccc(OC)cc2)C1c1ccc(OC)cc1 (stereo not given)
inactive: dose: 12.5 mg/kg/injection, schedule: Q04DX002 (ip), vehicle: Klucel (hydroxypropylcellulose) (HPC) 102 % of control | dose: 25.0 mg/kg/injection, schedule: Q04DX002 (ip), vehicle: Klucel (hydroxypropylcellulose) (HPC) 108 % of control | dose: 50.0 mg/kg/injection, schedule: Q04DX002 (ip), vehicle: Klucel (hydroxypropylcellulose) (HPC) 94 % of control

CCOC(=O)C(CC1CC(=O)Nc2ccccc21)C(=O)OCC (stereo not given)
inactive: [10] 95 % of control | [11] 97 % of control | [12] 101 % of control

CC(c1ccccc1C(=O)O)c1ccc(Br)c2ccccc12 (stereo not given)
inactive: dose: 50.0 mg/kg/injection, schedule: Q04DX003 (ip), vehicle: Klucel (hydroxypropylcellulose) (HPC) 93 % of control | [15] 108 % of control | [16] 98 % of control

COc1ccc(C2(CO)OC(CO)C(O)C2O)cc1 (stereo not given)
inactive: [9] 105 % of control | [10] 103 % of control | [11] 97 % of control | [12] 94 % of control

CCCCCCCCCCCCCCCCOCCCCCCCCCCCCCCCC
inactive: [6] 96 % of control | dose: 100.0 mg/kg/injection, schedule: Q04DX003 (ip), vehicle: other 103 % of control | [7] 100 % of control | dose: 200.0 mg/kg/injection, schedule: Q04DX003 (ip), vehicle: other 88 % of control | [8] 91 % of control | dose: 400.0 mg/kg/injection, schedule: Q04DX003 (ip), vehicle: other 95 % of control

Cc1c(C)c([N+](=O)[O-])c(C)c(C)c1[N+](=O)[O-]
inactive: [6] 91 % of control | [15] 96 % of control | [7] 98 % of control | [16] 100 % of control | [8] 93 % of control | [17] 101 % of control

Source: PubChem BioAssay AID248 (DTP/NCI, 2004)
